The source of these data is patent US4931436A, “Condensed diazepinones, processes for preparing them and pharmaceutical compositions containing these compounds” (Dr. Karl Thomae GmbH, priority 1988, dated 1990).

Structures are written as SMILES. Counter-ions that a name gives are not always drawn. Some results are limits rather than exact numbers.

Broadly, the IC50 is the concentration needed to halve the response being measured.

One series can be described thus: Solubility in water. Format: physicochemical.
Series [1] has as its target T1, muscarinic receptors (heart) (Rattus norvegicus, UniProt P10980).
T1 construct: The whole heart was cut up with scissors; from tissue; host or cells: whole heart of male Sprague-Dawley rats, homogenate
T1 sequence (P10980 1-466): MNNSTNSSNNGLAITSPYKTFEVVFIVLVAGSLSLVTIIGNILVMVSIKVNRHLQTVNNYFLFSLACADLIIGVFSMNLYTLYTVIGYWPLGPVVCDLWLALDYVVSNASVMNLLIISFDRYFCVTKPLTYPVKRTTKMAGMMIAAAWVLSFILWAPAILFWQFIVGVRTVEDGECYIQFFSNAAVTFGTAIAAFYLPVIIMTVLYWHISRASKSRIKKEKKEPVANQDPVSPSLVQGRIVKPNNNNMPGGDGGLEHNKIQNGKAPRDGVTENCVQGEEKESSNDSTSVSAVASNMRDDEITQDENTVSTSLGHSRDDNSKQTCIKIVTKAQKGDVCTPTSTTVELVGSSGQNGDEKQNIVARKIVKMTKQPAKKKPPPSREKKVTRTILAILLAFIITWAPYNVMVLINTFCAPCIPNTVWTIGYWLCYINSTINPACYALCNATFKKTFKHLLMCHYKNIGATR
The experiment in a line: Receptor binding test in vitro, 3H-NMS displacement, whole heart. The arrangement: species or system rat (male Sprague-Dawley).
Description: The organs were donated by male Sprague-Dawley rats weighing 180-220 g. After the heart and submandibular gland had been removed, all other steps were carried out in ice cold Hepes HCl buffer (pH 7.4; 100 mmolar NaCl, 10 mmolar MgCl2). The whole heart was cut up with scissors. All the organs were then homogenised in a Potter apparatus.
For the binding test the homogenised organs were diluted as follows:
The homogenised organs were incubated at a certain concentration of the radioligand and at a series of concentrations of the non-radioactive test substances in an Eppendorf centrifuge tube at 30° C. Incubation lasted 45 minutes. […] Incubation was ended by the addition of ice cold buffer followed by vacuum filtration. The filters were rinsed with cold buffer and their radioactivity was determined. […] Each measurement was taken four times. The IC50 values of the non-labelled test substances were determined graphically.

The target of series [2] is muscarinic receptors (submandibular gland) (Rattus norvegicus, UniProt P08483). The experiment in a line: biochemical. The settings on record: in vitro, 0.3 nmolar 3H-NMS, 45 min, 30° C., read-out: log IC50, Submandibular gland (converted). It counts as binding, rat (male Sprague-Dawley).
For a further series, the target named is T2, M2 (Rattus norvegicus, UniProt P10980).
T2 construct: The bradycardia caused by vagus stimulation; from tissue; host or cells: heart of the living male THOM rat
T2 sequence (P10980 1-466): T1 sequence (P10980 1-466)
The experiment in a line: M2 activity in the rat: inhibition of bradycardia caused by vagus stimulation. The settings on record: iv, 5 min, 50% reduction of vagal bradycardia. It counts as in vivo, rat (male THOM). How it is done: The method used was described by Hammer and Giachetti (Life Sciences 31, 2991-2998 (1982)). 5 minutes after the intravenous injection of increasing doses of the substance, either the right vagus was electrically stimulated (frequency: 25 Hz; pulse width: 2 ms; duration of stimulus: 30 s; voltage: supramaximal) or 0.3 mg/kg of McN-A-343 were intravenously injected into male THOM rats. The bradycardia caused by vagus stimulation and the rise in blood pressure caused by McN-A-343 were determined. The dosage of the substances which reduced either the vagal bradycardia (M2) or the rise in blood pressure (M1) by 50% was determined graphically. For the results see Table II.

Another series concerns the target T3, M1 (Rattus norvegicus, UniProt P08482).
T3 construct: from tissue; host or cells: living male THOM rat (site of action, sympathetic ganglia, is own knowledge)
T3 sequence (P08482 1-460): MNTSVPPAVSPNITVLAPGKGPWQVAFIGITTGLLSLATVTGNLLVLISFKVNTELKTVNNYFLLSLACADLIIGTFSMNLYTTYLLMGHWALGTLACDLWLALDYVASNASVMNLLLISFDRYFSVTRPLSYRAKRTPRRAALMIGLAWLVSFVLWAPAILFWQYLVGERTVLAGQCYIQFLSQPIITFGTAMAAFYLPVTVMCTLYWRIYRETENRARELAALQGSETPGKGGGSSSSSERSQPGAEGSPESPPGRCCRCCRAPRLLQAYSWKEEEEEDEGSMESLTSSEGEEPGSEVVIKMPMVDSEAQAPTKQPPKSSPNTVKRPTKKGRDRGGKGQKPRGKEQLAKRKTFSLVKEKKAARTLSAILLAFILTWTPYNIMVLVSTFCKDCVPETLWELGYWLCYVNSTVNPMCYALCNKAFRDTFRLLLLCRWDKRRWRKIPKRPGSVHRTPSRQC
The experiment in a line: M1 activity in the rat: inhibition of rise in blood pressure caused by McN-A-343. Conditions: iv, 5 min, i.v., 50% reduction of McN-A-343 rise in blood pressure, read-out: M1 activity (rat) ED50. It counts as in vivo, rat (male THOM). The procedure:
The dosage of the substances which reduced either the vagal bradycardia (M2) or the rise in blood pressure (M1) by 50% was determined graphically. For the results see Table II.

Series [3] deals with T4, muscarinic receptors of the atrium (Cavia porcellus, UniProt H0VRN8).
T4 construct: isolated, spontaneously beating, right atrium; from tissue; host or cells: isolated spontaneously beating right atrium of the guinea pig
T4 sequence (H0VRN8 1-466): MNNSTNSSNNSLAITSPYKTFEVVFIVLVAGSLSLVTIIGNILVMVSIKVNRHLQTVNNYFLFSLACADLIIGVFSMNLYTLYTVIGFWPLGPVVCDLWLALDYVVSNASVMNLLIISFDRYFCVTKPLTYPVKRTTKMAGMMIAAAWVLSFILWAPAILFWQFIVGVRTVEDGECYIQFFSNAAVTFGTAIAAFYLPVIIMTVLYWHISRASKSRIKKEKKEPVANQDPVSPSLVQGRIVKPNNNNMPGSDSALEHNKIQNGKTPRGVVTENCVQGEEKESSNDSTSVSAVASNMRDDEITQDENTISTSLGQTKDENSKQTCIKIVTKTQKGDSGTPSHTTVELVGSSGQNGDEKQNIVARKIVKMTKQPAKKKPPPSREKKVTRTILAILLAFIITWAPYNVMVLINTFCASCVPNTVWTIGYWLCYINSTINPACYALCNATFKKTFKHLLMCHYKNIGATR
Description: Dissociation constants (KB values) on the isolated spontaneously beating right atrium. The arrangement: species or system guinea pig. Conditions: spontaneously beating atrium, guinea pig, methacholine, 30 minutes contact; read-out: KB, Heart. The procedure: (§1) Dissociation constants (KB values) were determined "in vitro" on the ileum and spontaneously beating atrium of the guinea pig. The ileum was taken out and incubated in Krebs-Henseleit solution in an organ bath. Contractions were induced by increasing concentrations of methacholine (M) so that total concentration/activity curves could be recorded. M was then washed out, the test substance was added and kept in contact for 30 minutes and another concentration/activity curve was recorded with M.
(§2) Dissociation constants for the muscarinic receptors of the atrium were obtained in the manner described above.

Series [4] concerns muscarinic receptors of the atrium. The description is as above. The arrangement: species or system guinea pig. The settings on record: guinea pig heart and ileum in vitro. The procedure:
as §1, §2

The target of series [5] is T5, muscarinic receptors (ileum) (Cavia porcellus, UniProt H0W1Z3).
T5 construct: from tissue; host or cells: isolated ileum of the guinea pig
Description: Dissociation constants (KB values) on the isolated ileum. The settings on record: guinea pig, methacholine, 30 minutes contact. The procedure:
as §1

Series [6] concerns the target T6, muscarinic receptors (heart, atrium) (Rattus norvegicus, UniProt P10980).
T6 construct: from tissue; host or cells: heart (atrium, ventricle) of female rats, labelled in vivo
T6 sequence (P10980 1-466): T1 sequence (P10980 1-466)
The experiment in a line: Receptor binding test in vivo (3H-NMS), atrium. The arrangement: species or system rat (female). The settings on record: in vivo binding. How it is done: (§3) For these experiments, female rats with a body weight of about 200 g were used. Before the start of the experiment the animals were anaesthetised with a dose of 1.25 g/kg of urethane. The animals were given the dosage of test substance by i.v. injection. After 15 minutes, 113 ng/kg of ^3 H-N-methylscopolamine (^3 H-NMS) were given by the same route. After another 15 minutes the animals were killed and their heart, bronchi and lachrymal glands were taken out. These organs were dissolved in Soluene R and the radioactivity was measured. These measurements were taken as representing total binding. […] The ID50 values for the individual organs were determined from these experiments. […]

Series [7] deals with T7, muscarinic receptors (heart, ventricle) (Rattus norvegicus, UniProt P10980).
T7 construct: from tissue; host or cells: heart (atrium, ventricle) of female rats, labelled in vivo
T7 sequence (P10980 1-466): T1 sequence (P10980 1-466)
Description: Receptor binding test in vivo (3H-NMS), ventricle. The arrangement: species or system rat (female). Conditions: iv, 0.5 h, i.v., in vivo 3H-NMS binding, read-out: ID50, Heart, Ventricle. How it is done: as §3

For series [8], the system named is muscarinic receptors (bronchi). The experiment in a line: Receptor binding test in vivo (3H-NMS), bronchi. The arrangement: species or system rat (female). The settings on record: i.v., in vivo 3H-NMS binding, rat; 30 min. The procedure: as §3
The target in series [9] is muscarinic receptors (lachrymal glands) (Rattus norvegicus, UniProt P08483). The experiment in a line: in vivo. How it is done: as §3
Chain of muscarinic receptors (lachrymal glands) (P08483 whole entry): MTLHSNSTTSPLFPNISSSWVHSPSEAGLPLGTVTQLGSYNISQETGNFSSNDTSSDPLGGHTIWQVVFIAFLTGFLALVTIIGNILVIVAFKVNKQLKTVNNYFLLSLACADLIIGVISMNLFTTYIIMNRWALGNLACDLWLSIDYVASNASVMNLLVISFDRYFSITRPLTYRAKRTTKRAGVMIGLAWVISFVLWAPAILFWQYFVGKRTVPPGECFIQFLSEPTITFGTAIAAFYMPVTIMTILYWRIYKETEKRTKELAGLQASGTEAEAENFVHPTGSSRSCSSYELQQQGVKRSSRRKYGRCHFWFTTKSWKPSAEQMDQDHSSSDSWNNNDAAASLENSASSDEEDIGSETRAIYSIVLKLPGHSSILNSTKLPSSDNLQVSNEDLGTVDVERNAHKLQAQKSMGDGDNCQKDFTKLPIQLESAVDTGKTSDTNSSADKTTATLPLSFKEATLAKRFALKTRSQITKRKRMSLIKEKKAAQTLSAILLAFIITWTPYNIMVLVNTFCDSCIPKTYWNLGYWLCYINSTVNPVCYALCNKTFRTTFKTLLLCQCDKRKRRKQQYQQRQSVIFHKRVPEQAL

Chain of muscarinic receptors (submandibular gland) (P08483 whole entry): as above
T5 sequence (H0W1Z3 1-590): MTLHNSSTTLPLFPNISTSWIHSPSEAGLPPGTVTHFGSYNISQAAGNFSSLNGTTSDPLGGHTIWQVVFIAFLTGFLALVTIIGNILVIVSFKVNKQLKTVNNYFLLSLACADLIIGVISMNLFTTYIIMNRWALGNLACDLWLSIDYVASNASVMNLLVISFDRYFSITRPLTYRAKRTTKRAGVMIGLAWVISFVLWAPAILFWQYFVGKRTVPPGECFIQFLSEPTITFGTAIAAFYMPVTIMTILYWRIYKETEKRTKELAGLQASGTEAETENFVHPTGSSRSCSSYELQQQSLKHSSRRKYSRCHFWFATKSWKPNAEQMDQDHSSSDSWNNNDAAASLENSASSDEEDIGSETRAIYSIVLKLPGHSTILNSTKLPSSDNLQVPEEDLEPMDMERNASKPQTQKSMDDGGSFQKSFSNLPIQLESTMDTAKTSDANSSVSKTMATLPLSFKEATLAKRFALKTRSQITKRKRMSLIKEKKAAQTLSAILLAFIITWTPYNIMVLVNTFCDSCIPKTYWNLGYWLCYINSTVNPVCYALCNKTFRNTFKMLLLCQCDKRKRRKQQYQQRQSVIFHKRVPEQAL

On to `CS(=O)(=O)O.O=C1Nc2cccnc2N(C(=O)N2CCCC(CCCN3CCCCC3)C2)c2ccccc21` (stereo not shown) [Example 1 methanesulphonate, 5,11-dihydro-11-[[3-[3-(1-piperidinyl)propyl]-1-piperidinyl]carbonyl]-6H-pyrido[2,3-b][1,4]benzodiazepin-6-one-methanesulphonate], for which, in “Solubility in water”, the “solubility in water (in words)” value is recorded as “readily soluble in water”.
The same measure, in the same setting: under `CCN(CC)CCCCC1CCCCN1C(=O)N1c2ccccc2C(=O)Nc2cccnc21` (stereo not shown) [Example 4 dihydrochloride] stands “water soluble”.
Turning to `O=C1Nc2cccnc2N(C(=O)N2CCCC(CCCN3CCCCC3)C2)c2ccccc21` (stereo not shown) [Substance A, 5,11-dihydro-11-[[3-[3-(1-piperidinyl)propyl]-1-piperidinyl]carbonyl]-6H-pyrido[2,3-b][1,4]-benzodiazepin-6-one], the “Selectivity factor: ratio IC50 submandibular gland to IC50 heart” value in series [1] was 10. For the same molecule, the IC50 in series [2] is 20 nM. Moreover, the ED50 was 6.9 µg/kg at M2, 49 µg/kg on M1 and 5 µg/kg in series [7]. Further, the Kb in series [3] amounted to 0.347 nM; in series [5], 3.23 nM. In addition, the “effectiveness compared with X and Y, Table III (in words)” value in [4] is “significantly more effective than X and Y”. The “selectivity heart vs smooth muscle, Table III (in words)” value in series [4] is given as “a clear selectivity in favour of the heart”. The “potency on the heart compared with X and Y, Table IV (in words)” value in series [6] is “significant improvement in potency compared with substances X and Y on the heart”. For the same molecule, in series [8], the “ID50, Bronchi” value was determined as 60 µg/kg. In addition, the “Ratio of ID50 in the lachrymal glands to ID50 in the atrium” value in series [9] (in vivo binding) is recorded as 20.
Consider `Cl.O=C1Nc2cccnc2N(C(=O)N2CCCC(CCCN3CCCC3)C2)c2ccccc21` (stereo not shown) [Substance B, 5,11-dihydro-11-[[3-[3-(1-pyrrolidinyl)propyl]-1-piperidinyl]carbonyl]-6H-pyrido[2,3-b][1,4]benzodiazepin-6-one-hydrochloride], for which the “Selectivity factor: ratio IC50 submandibular gland to IC50 heart” value in [1] is reported as 4. The IC50 in [2] is 39.8 nM.
Turning to `CS(=O)(=O)O.O=C1Nc2cccnc2N(C(=O)N2CCCC(CCN3CCCCC3)C2)c2ccccc21` (stereo not shown) [Substance C, 5,11-dihydro-11-[[3-[2-(1-piperidinyl)ethyl]-1-piperidinyl]carbonyl]-6H-pyrido[2,3-b][1,4]benzodiazepin-6-one-methanesulphonate], in series [1], the “Selectivity factor: ratio IC50 submandibular gland to IC50 heart” value amounted to 10. The IC50 in series [2] is 30.2 nM. The ED50 was determined as 7.6 µg/kg at M2 and 39 µg/kg at M1.
`O=C1Nc2cccnc2N(C(=O)N2CCCC(CCN3CCCC3)C2)c2ccccc21` (stereo not shown) [Substance D, 5,11-dihydro-11-[[3-[2-(1-pyrrolidinyl)ethyl]-1-piperidinyl]carbonyl]-6H-pvrido[2,3-b][1,4]benzodiazepin-6-one-hydrochloride]: the “Selectivity factor: ratio IC50 submandibular gland to IC50 heart” value in series [1] worked out at 8.3. The half-maximal inhibitory concentration (IC50) in series [2] was 50.1 nM.
In the same order, the values of `CN(CCC1CCCN(C(=O)N2c3ccccc3C(=O)Nc3cccnc32)C1)C1CCCC1` (stereo not shown) [Substance E] are 10 and 30.2 nM.
Consider `Cl.O=C1Nc2cccnc2N(C(=O)N2CCCC(CCN3CCCCCC3)C2)c2ccccc21` (stereo not shown) [Substance F, 5,11-dihydro-11-[[3-[2-(hexahydro-1H-1-azepinyl)ethyl]-1-piperidinyl]carbonyl]-6H-pyrido[2,3-b][1,4]-benzodiazepin-6-one-hydrochloride], for which the “Selectivity factor: ratio IC50 submandibular gland to IC50 heart” value in series [1] is 10. Also, the IC50 in series [2] is 30.2 nM.
Turning to `O=C1Nc2ccccc2N(C(=O)N2CCCC(CCN3CCCCC3)C2)c2ncccc21` (stereo not shown) [Substance G, 6,11-dihydro-11-[[3-[2-(1-piperidinyl)ethyl]-1-piperidinyl]carbonyl]-5H-pyrido[2,3-b][1,5]benzodiazepin-5-one], the “Selectivity factor: ratio IC50 submandibular gland to IC50 heart” value in series [1] amounted to 10. Besides, the IC50 in series [2] is 39.8 nM. The results for the ED50 on M2 and on M1 were 8.13 µg/kg and 7.16 µg/kg, respectively.
Regarding `CCN(CC)CC1CCCCN1CC(=O)N1c2ccccc2C(=O)Nc2cccnc21` (stereo not shown) [Substance X, 11-[[2-[(diethylamino)methyl]-1-piperidinyl]acetyl]-5,11-dihydro-6H-pyrido[2,3-b][1,4]benzodiazepin-6-one], the ED50 in series [9] (iv, 0.5 h, read-out: ID50, Lachrymal glands) is more than 30000 µg/kg.
